The IC50 is the concentration at which inhibition is half-maximal. Low values mean higher potency, high ones lower potency.

The target of the assay is T1, Phospholipase A2, membrane associated (Homo sapiens, UniProt P14555).
T1 sequence (P14555 whole entry): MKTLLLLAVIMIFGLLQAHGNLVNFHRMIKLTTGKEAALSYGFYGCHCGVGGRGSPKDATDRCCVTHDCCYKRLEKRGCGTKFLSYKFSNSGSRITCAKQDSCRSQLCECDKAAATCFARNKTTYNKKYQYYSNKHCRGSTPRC
The assay can be described thus: Inhibition of sPLA2-2A in HEK293 cell. It counts as cell-based.
`O=c1cc(-c2ccc(-c3cccc(-c4cc(=O)c5ccccc5o4)c3)cc2)oc2ccccc12`: the midpoint of inhibition, the IC50, lay at 15.5 µM.
Compound `O=c1cc(-c2ccc(-c3c(-c4ccccc4)oc4ccccc4c3=O)cc2)oc2ccccc12` gave a half-maximal inhibitory concentration (IC50) of 23.2 µM.
Regarding `O=c1cc(-c2ccc(-c3ccc4oc(-c5ccccc5)cc(=O)c4c3)cc2)oc2ccccc12`, the IC50 came to 63.9 µM.
The compound `O=c1cc(-c2ccccc2)oc2ccc(-c3ccc4oc(-c5ccccc5)cc(=O)c4c3)cc12` registered a concentration for half-maximal inhibition (IC50) of 69.3 µM.
In the case of `O=c1cc(-c2ccc(O)c(-c3c(O)cc(O)c4c(=O)cc(-c5ccc(O)cc5)oc34)c2)oc2cc(O)cc(O)c12` [AMENTOFLAVONE], inhibition was half-maximal at 23.8 µM (IC50).
Turning to `O=c1cc(-c2ccc(Oc3cc(-c4cc(=O)c5c(O)cc(O)cc5o4)ccc3O)cc2)oc2cc(O)cc(O)c12` [OCHNAFLAVONE], the IC50 worked out at 3.5 µM.
For `O=c1cc(-c2cccc(-c3ccc4oc(-c5ccccc5)cc(=O)c4c3)c2)oc2ccccc12` the value was 19.9 µM.
`O=c1cc(-c2ccc(-c3ccc(-c4cc(=O)c5ccccc5o4)cc3)cc2)oc2ccccc12` displayed an IC50 of 3 µM.

Source of the values: ChEMBL document CHEMBL1146997, “Synthesis of phospholipase A2 inhibitory biflavonoids” (Bioorg Med Chem Lett, 2006).
